Counter-ions that a name gives are not always drawn.
Each compound was assayed on MLO-Y4 osteocytes (assay: High-throughput drug screening of primary cilia length and incidence). Details: not given.
Assay type: cell-based
Method: MLO-Y4 osteocytes were maintained on collagen I-coated dishes in MEMα (Life_Technologies) supplemented with 5% fetal bovine serum (FBS), 5% calf serum (CS), and 1% penicillin/streptomycin (P/S) at 37° C. and 5% CO2. Osteocytes were then seeded onto 384-well collagen-coated plates for 72 hours before fixation. […] These libraries include Tocris, Sigma LOPAC, Selleck Chemical, Prestwick, and Spectrum commercially available compound libraries. All cell seeding and plate handling was performed with the Perkin Elmer cell:explorer workstation.
Cells were fixed in 4% paraformaldehyde and permeabilized with 0.1% Triton-X 100 (Sigma). 10% goat serum (vendor) was used for blocking. Cilia were stained using a monoclonal antibody against acetylated α-tubulin (1:20) from a C3B9 hybridoma cell line, and visualized with A F488 (1:1000, ThermoFisher). Nuclei were visualized with Hoechst. Cells were imaged using a GE INCell 2000 high-throughput imager at 40× magnification. 4 fields of view were taken per well.
Each pair of nuclei and cilia images was first analyzed individually, then the entire population was examined to evaluate each compound's effect on cilia length and incidence. A custom MATLAB script was developed to perform all image analysis. This script first utilizes an enhanced implementation of a watershed transform, which is a segmentation tool which enables detection of similarly shaped overlapping particles in noisy images by the procedural whittling down of pixels found close to the edge of such particles. The augmentation of the algorithm incorporates thresholding for noise removal based on signal intensity and object size, nuclei dilation to exclude non-cellular artifacts, as well as skeletonization of cilia to quantify length. The results of the analysis are number of nuclei, number of cilia, and average cilia length in each image.
Compounds were selected based on deviation from the population mean. Each well was normalized to vehicle control images on each plate, allowing the establishment of a normalized population mean. Hits were chosen based on compounds whose triplicate mean was furthest (based on standard deviation away) from the population mean. […] Compounds were classified based on mechanism of action.
To identify compounds that modulate primary cilia formation a high-throughput platform was developed to automate cell culture, staining, imaging, and analysis, as shown in schematic form in FIG. 18. […] Cells were cultured on 384-well plates, and treated with small molecules with known biologic activity, enabling classification of mechanisms of action. Drug treatment was applied for 16 hours at 10 μM concentration, performed in triplicate, before fixation and immunostaining of primary cilia. Cells were then imaged using the GE INCell 2000 High Content Analyzer, capturing 4 fields of view per well at 40× magnification. Additionally, each plate contains 8 wells of DMSO vehicle control.
A MATLAB script was developed to detect and analyze changes in ciliogenesis. […] A representative exemplary image (FIG. 19A) is cropped to better display features, scale bar represents 30 μm. A custom MATLAB script was used to identify nuclei and cilia for analysis (FIG. 19B). […] Objects are further filtered based on size and signal intensity.
Cilia length and incidence for each field of view were normalized to vehicle control on that individual plate. This allowed development of a normalized population average and standard deviation. […] To control for toxic effects only small molecules with at least 40% viability, based on number of nuclei versus control, were selected as hits. Furthermore, compounds repeated between multiple libraries eliciting the same effect on cilia length or incidence were excluded, such that only one of the repeated compounds was selected as a hit.
(S)-(+)-Niguldipine hydrochloride was tested, and the “Average Length SD Away” value was 2.267 SD.

Same assay, conditions: 10 μM, 16 hours, triplicate; normalized to vehicle control; standard deviation away from the population average
For `c1ccc2c(c1)[I+]c1ccccc1-2` [Diphenyleneiodonium chloride], the “Average Length SD Away” value was 2.603 SD.
For `CCCC(=O)[O-].[Na+]` [Sodium butyrate], the “Average Incidence SD Away” value was 2.3981 SD.
For `CCOc1ccc2nc3cc(N)ccc3c(N)c2c1` [Ethacridine lactate monohydrate], the “Average Length SD Away” value was 2.114 SD.
In the case of `NC(=O)c1ncn([C@@H]2O[C@H](CO)[C@@H](O)[C@H]2O)c1N` [Acadesine], the “Average Incidence SD Away” value is reported as 1.847 SD.
`Nc1nc2nc[nH]c2c(=S)[nH]1` [THIOGUANINE] was tested, and the “Average Length SD Away” value was 1.675 SD.
For `CN(Cc1cnc2nc(N)nc(N)c2n1)c1ccc(C(=O)N[C@@H](CCC(=O)O)C(=O)O)cc1` [Methotrexate], the “Average Incidence SD Away” value was 2.424 SD and the “Average Length SD Away” value was 3.097 SD.
With `Cc1cc(Cl)ccc1OCCCC(=O)NO` [Droxinostat] the “Average Incidence SD Away” value was 2.26 SD and the “Average Length SD Away” value was 2.91 SD.
For `O.c1cnc2c(c1)ccc1cccnc12` [110-Phenanthroline monohydrate], the “Average Length SD Away” value was 1.838 SD.
`Cc1cc2c(s1)Nc1ccccc1N=C2N1CCN(C)CC1` [Olanzapine (Zyprexa), Olanzapine] was tested, and the “Average Incidence SD Away” value was 1.609 SD.
In the case of `N=C1C=CC(=C(c2ccc(N)cc2)c2ccc(N)cc2)C=C1` [PARAROSANILINE PAMOATE], the “Average Length SD Away” value is reported as 2.389 SD.
For `O=C[C@H](O)[C@@H](O)[C@H](O)[C@H](O)CO` [Dextrose (D-glucose), D-glucose], the “Average Incidence SD Away” value was 1.518 SD.
`C[N+]1(C)[C@@H]2C[C@@H](OC(=O)C(O)(c3cccs3)c3cccs3)C[C@H]1[C@@H]1O[C@@H]12` [Tiotropium Bromide hydrate] was tested, and the “Average Incidence SD Away” value was 1.593 SD.
`C[C@]12CC[C@@H]3c4ccc(O)cc4CC[C@H]3[C@@H]1CC[C@@H]2OC(=O)CCC1CCCC1` [ESTRADIOL CYPIONATE] was tested, and the “Average Length SD Away” value was 1.56 SD.
With `CC1C(=O)OC2C(O)C34C5CC(C(C)(C)C)C36C(OC(=O)C6O)OC4(C(=O)O5)C12O` (stereo not drawn) [Ginkgolide B] the “Average Length SD Away” value was 1.581 SD.
In the case of `CC[C@]1(O)C[C@@H]2CN(CCc3c([nH]c4ccccc34)[C@@](C(=O)OC)(c3cc4c(cc3OC)N(C)[C@H]3[C@@](O)(C(=O)OC)[C@H](OC(C)=O)[C@]5(CC)C=CCN6CC[C@]43[C@@H]65)C2)C1` [Vinblastine], the “Average Incidence SD Away” value is reported as 3.124 SD and the “Average Length SD Away” value is reported as 1.771 SD.
In the case of `CC1=NN(c2ccccc2)C(=O)C1` [Edaravone (MCI-186), Edaravone], the “Average Incidence SD Away” value is reported as 1.537 SD.
`CC(=O)O[C@@H]1C[C@H]2C(C)(C)C(=O)C=C[C@]2(C)[C@H]2CC[C@]3(C)C(=CC(=O)O[C@H]3c3ccoc3)[C@@]21C` [DEOXYGEDUNIN] was tested, and the “Average Length SD Away” value was 2.161 SD.
In the case of `COc1ccc2c(c1OC)OC[C@@H](c1ccc(OC)c(OC)c1OC)C2` [DUARTIN DIMETHYL ETHER], the “Average Length SD Away” value is reported as 2.07 SD.
In the case of `CN1[C@@H]2CC[C@H]1C[C@@H](OC(=O)C(CO)c1ccccc1)C2` (stereo partly drawn) [Atropine], the “Average Incidence SD Away” value is reported as 1.694 SD.
`Cc1cc(/C=C/c2ccc3cc(N(C)C)ccc3[n+]2C)c(C)n1-c1ccccc1` [PYRVINIUM PAMOATE] was tested, and the “Average Length SD Away” value was 2.834 SD.
In the case of `CN(C)CCOC(c1ccccc1)c1ccccc1` [Diphenhydramine HCl (Benadryl), Diphenhydramine HCl], the “Average Incidence SD Away” value is reported as 1.928 SD.
For `CCOC(=O)[C@H](CCc1ccccc1)N[C@H]1CS[C@H](c2cccs2)CN(CC(=O)O)C1=O` [Temocapril HCl], the “Average Incidence SD Away” value was 1.877 SD.
For `O=C(O)c1nn(Cc2ccc(Cl)cc2Cl)c2ccccc12` [Lonidamine], the “Average Length SD Away” value was 2.357 SD.
With `CCCCC(=O)N(Cc1ccc(-c2ccccc2-c2nnn[nH]2)cc1)[C@H](C(=O)O)C(C)C` [Valsartan (Diovan), Valsartan] the “Average Incidence SD Away” value was 1.648 SD.
With `COCCc1ccc(OCC(O)CNC(C)C)cc1` (stereo not drawn) [Metoprolol tartrate] the “Average Incidence SD Away” value was 1.601 SD.
`CN(Cc1cc(Br)cc(Br)c1N)C1CCCCC1` [Bromhexine HCl] was tested, and the “Average Incidence SD Away” value was 1.882 SD and the “Average Length SD Away” value was 1.547 SD.
For `O=C([O-])c1ccccc1-c1c2cc(Br)c(=O)cc-2oc2[c]([Hg+])c([O-])c(Br)cc12.[Na+].[Na+].[OH-]` [Merbromin], the “Average Length SD Away” value was 5.067 SD.
For `Cc1cccc(N(C)C(=S)Oc2ccc3ccccc3c2)c1` [Tolnaftate], the “Average Incidence SD Away” value was 1.5099 SD.
With `CC(NC(C)(C)C)C(=O)c1cccc(Cl)c1` (stereo not drawn) [Amfebutamone (Bupropion), Amfebutamone] the “Average Incidence SD Away” value was 1.605 SD.
With `CC(C)(C)NCC(O)c1ccccc1Cl` (stereo not drawn) [TULOBUTEROL] the “Average Length SD Away” value was 2.06 SD.
`COc1nccc(-c2c(-c3ccc(F)cc3)ncn2C2CCC(O)CC2)n1` (stereo not drawn) [SB 239063] was tested, and the “Average Incidence SD Away” value was 1.795 SD and the “Average Length SD Away” value was 4 SD.
With `Cc1cccc(Cc2c[nH]cn2)c1C` [Detomidine HCl] the “Average Incidence SD Away” value was 1.922 SD.
With `CC(C)C(=O)Nc1ccc([N+](=O)[O-])c(C(F)(F)F)c1` [Flutamide (Eulexin), Flutamide] the “Average Incidence SD Away” value was 2.035 SD.
`CCCC(=O)OCOC(=O)C1=C(C)NC(C)=C(C(=O)OC)C1c1cccc(Cl)c1Cl` (stereo not drawn) [Cleviprex (Clevidipine), Clevidipine] was tested, and the “Average Incidence SD Away” value was 1.837 SD.
`O=C1C=C2C=C[C@@H]3C[C@@]2(O1)[C@H]1CCCCN31` [SECURININE] was tested, and the “Average Length SD Away” value was 1.502 SD.
In the case of `CC(C(=O)[O-])c1cccc(Oc2ccccc2)c1.CC(C(=O)[O-])c1cccc(Oc2ccccc2)c1.[Ca+2]` (stereo not drawn) [Fenoprofen calcium], the “Average Incidence SD Away” value is reported as 3.368 SD.
`Cc1ncc([N+](=O)[O-])n1CCO` [Metronidazole (Flagyl), Metronidazole] was tested, and the “Average Incidence SD Away” value was 2.092 SD.
In the case of `CCN(C)C(=O)Oc1cccc([C@H](C)N(C)C)c1` [Rivastigmine tartrate (Exelon), Rivastigmine tartrate], the “Average Incidence SD Away” value is reported as 1.664 SD.
For MONENSIN SODIUM, the “Average Length SD Away” value was 1.722 SD.
With `C=C(C)[C@H]1CC=C(C(=O)O)CC1` [PERILLIC ACID (−)] the “Average Length SD Away” value was 2.196 SD.
With `CC1=C(/C=C/C(C)=C/C=C/C(C)=C/C(=O)Nc2ccc(O)cc2)C(C)(C)CCC1` [Retinoic acid p-hydroxyanilide] the “Average Length SD Away” value was 2.487 SD.
`O=c1c(-c2ccc(O)cc2)coc2cc(O)cc(O)c12` [Genistein] was tested, and the “Average Incidence SD Away” value was 1.524 SD.
For `CNCCc1ccccn1` [BETAHISTINE HYDROCHLORIDE], the “Average Length SD Away” value was 1.532 SD.
`O=C(CCCCCCC(=O)Nc1ccccc1)NO` [Vorinostat] was tested, and the “Average Length SD Away” value was 3.283 SD.
`CN/C(=N/CCSCc1nc[nH]c1C)NC#N` [Cimetidine (Tagamet), Cimetidine] was tested, and the “Average Incidence SD Away” value was 1.562 SD.
`CCC(C)n1ncn(-c2ccc(N3CCN(c4ccc(OCC5COC(Cn6cncn6)(c6ccc(Cl)cc6Cl)O5)cc4)CC3)cc2)c1=O` (stereo not drawn) [ITRACONAZOLE] was tested, and the “Average Length SD Away” value was 2.154 SD.
`CC[n+]1c(-c2ccccc2)c2cc(N)ccc2c2ccc(N)cc21` [HOMIDIUM BROMIDE] was tested, and the “Average Length SD Away” value was 1.694 SD.
For `C[C@@H](NC(=O)/C(C#N)=C/c1ccc(O)c(O)c1)c1ccccc1` (single isomer, unassigned) [Tyrphostin B44 (−) enantiomer], the “Average Length SD Away” value was 1.877 SD.
With `Nc1nc2[nH]cc(CCc3ccc(C(=O)N[C@@H](CCC(=O)O)C(=O)O)cc3)c2c(=O)[nH]1` [Pemetrexed] the “Average Incidence SD Away” value was 2.083 SD and the “Average Length SD Away” value was 2.765 SD.

Same assay, conditions: 10 μM, 16 hours; hit = 1.5 standard deviation above population average, at least 40% viability
`CN(Cc1cnc2nc(N)nc(N)c2n1)c1ccc(C(=O)N[C@@H](CCC(=O)O)C(=O)O)cc1` [Methotrexate] was tested, and the “classification as hit increasing cilia length in the screen” value was “listed as hits”.

Reference: patent publication US20190015423A1, “REGULATION OF GENE EXPRESSION BY MODULATING PRIMARY CILIA LENGTH” (THE TRUSTEES OF COLUMBIA UNIVERSITY IN THE CITY OF NEW YORK, priority 2016, published 2019)
